According to PMC8160025 (Nanomedicine : nanotechnology, biology, and medicine, 2020):

Assays:
phosphorylated RB (pRB) = assay: Pharmacodynamics: pRB+ / PCNA proliferation markers in G-Smo medulloblastoma; format: in vivo, mouse; conditions: for suppression of pRB+ cell fraction in tumors: 24 h
[1] = cited from earlier work
[2] = Spatial distribution of vismodegib in brain sections by IR-MALDESI; format: in vivo, mouse; conditions: 4 h after IP injection
[3] = children; cited from earlier work
[4] = 4 h
[5] = Pharmacokinetics by LC-MS in medulloblastoma-bearing G-Smo mice; conditions: mouse, in vivo, ip, 100 mg/kg
albumin = conditions: 4 h post administration, SPE
[6] = Bone toxicity: femur length by CT scan and direct measurement; format: in vivo, mouse; conditions: 4 daily doses of 100 mg/kg IP from P10
[7] = system: SHH-driven medulloblastoma; assay: Survival; format: in vivo, mouse; conditions: 100 mg/kg IP or orally, or 50 mg/kg IP
serum protein = assay: Unbound vismodegib over time after incubation in FBS; format: in vitro ADME, bovine; conditions: 30 min incubation

CS(=O)(=O)c1ccc(C(=O)Nc2ccc(Cl)c(-c3ccccn3)c2)c(Cl)c1 [vismodegib]
suppression of pRB (phosphorylated RB (pRB); 50 mg/kg IP): sufficient to suppress pRB
suppression of pRB+ cell fraction in tumors (phosphorylated RB (pRB); single 100 mg/kg IP): similarly suppressed pRB
suppression of pRB+ cell fraction in tumors (phosphorylated RB (pRB); single 100 mg/kg oral): less suppression
oral bioavailability [1]: 31.8%
distribution of vismodegib in tumor and forebrain [2]: evenly distributed
drug levels in the CSF as % of the concentration of unbound vismodegib [3]: 26-78%
drug levels in the CSF as % of total plasma vismodegib [3]: 0.26%
vismodegib level in serum ([4]; 100 mg/kg, systemic (IP)): comparable levels to POx-vismo
vismodegib concentrations in blood, tumor and forebrain compared to POx-vismo ([4]; oral gavage): significantly lower
Kp [5]: 0.439
drug albumin-bound in serum (albumin): 90%
vismodegib unbound in serum (albumin): 9%
femur length [6]: reduced femur length
event free survival (EFS) [7]: failed to extend the EFS
unbound fraction of total vismodegib (serum protein): marginal
